± gives the expanded uncertainty stated by the source.
Tests used:
[1] = Crystal; DSC
[2] = Molar enthalpy of transition or fusion; settings: Crystal; DSC

- Triple point temperature [1]: 342.77 ± 1.2 K
- Molar enthalpy of transition or fusion [2]: 5.27 ± 0.182 kcal/mol
Structure (SMILES): O=[N+]([O-])c1ncccc1O [2-nitropyridin-3-ol]

— the NIST ThermoML archive (doi:10.1021/acs.jced.9b00564)
